Experimental data as given in ChEMBL document CHEMBL3734692, “Design and synthesis of 2-oxindole based multi-targeted inhibitors of PDK1/Akt signaling pathway for the treatment of glioblastoma multiforme” (Eur J Med Chem, 2015).

Columns and labels:
[1] = target: Serine/threonine-protein kinase mTOR (Homo sapiens) (UniProt P42345); assay: Inhibition of mTOR (unknown origin) at 1 uM by selectscreen kinase profiling assay in presence of ATP
[2] = target: Protein kinase C alpha type (Homo sapiens) (UniProt P17252); assay: Inhibition of PKCalpha (unknown origin) at 1 uM by selectscreen kinase profiling assay in presence of ATP
[3] = target: Rho-associated protein kinase 2 (Homo sapiens) (UniProt O75116); assay: Inhibition of ROCK2 (unknown origin) at 1 uM by selectscreen kinase profiling assay in presence of ATP
[4] = target: Phosphatidylinositol 4,5-bisphosphate 3-kinase catalytic subunit gamma isoform (Homo sapiens) (UniProt P48736); assay: Inhibition of PIK3Cgamma (unknown origin) at 1 uM by selectscreen kinase profiling assay in presence of ATP
[5] = Antiproliferative activity against human ANGM-CSS cells assessed as inhibition of cell growth after 72 hrs by WST1 assay; format: functional
[6] = Antiproliferative activity against human U118MG cells assessed as inhibition of cell growth after 96 hrs by WST1 assay; format: functional; conditions: U-118-MG
[7] = Cell cycle arrest in human ANGM-CSS cells assessed as accumulation at S phase at 1 uM after 7 days by based fluorescent reagent based cell analysis (reference value: 4.1%); format: functional
[8] = target: Aurora kinase A (Homo sapiens) (UniProt O14965); assay: Inhibition of AURKA (unknown origin) at 1 uM by selectscreen kinase profiling assay in presence of ATP
[9] = target: Tyrosine-protein kinase BTK (Homo sapiens) (UniProt Q06187); assay: Inhibition of BTK (unknown origin) at 1 uM by selectscreen kinase profiling assay in presence of ATP
[10] = target: CDK2/Cyclin A2 (Homo sapiens) (UniProt P24941+P20248); assay: Inhibition of CDK2/cyclin A (unknown origin) at 1 uM by selectscreen kinase profiling assay in presence of ATP; format: protein-complex assay

Sequence of Tyrosine-protein kinase BTK (Homo sapiens) (Q06187 whole entry): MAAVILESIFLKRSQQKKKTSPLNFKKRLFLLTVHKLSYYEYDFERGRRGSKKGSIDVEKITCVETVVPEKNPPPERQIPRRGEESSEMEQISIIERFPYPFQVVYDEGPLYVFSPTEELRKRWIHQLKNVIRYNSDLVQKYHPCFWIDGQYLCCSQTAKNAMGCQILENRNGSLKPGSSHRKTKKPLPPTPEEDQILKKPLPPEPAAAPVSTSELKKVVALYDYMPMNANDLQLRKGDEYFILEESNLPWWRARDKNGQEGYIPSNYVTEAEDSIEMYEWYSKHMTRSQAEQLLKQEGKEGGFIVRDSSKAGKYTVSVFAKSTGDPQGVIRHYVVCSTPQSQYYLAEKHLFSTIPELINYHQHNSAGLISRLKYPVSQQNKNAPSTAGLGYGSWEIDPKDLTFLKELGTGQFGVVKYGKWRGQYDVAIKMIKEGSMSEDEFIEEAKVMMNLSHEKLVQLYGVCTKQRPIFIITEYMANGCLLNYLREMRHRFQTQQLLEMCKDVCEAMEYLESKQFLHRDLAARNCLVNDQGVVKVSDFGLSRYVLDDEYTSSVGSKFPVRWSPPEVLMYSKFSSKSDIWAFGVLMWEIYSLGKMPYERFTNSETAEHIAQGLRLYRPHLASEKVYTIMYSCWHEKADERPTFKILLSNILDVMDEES
Sequence of Aurora kinase A (Homo sapiens) (O14965 whole entry): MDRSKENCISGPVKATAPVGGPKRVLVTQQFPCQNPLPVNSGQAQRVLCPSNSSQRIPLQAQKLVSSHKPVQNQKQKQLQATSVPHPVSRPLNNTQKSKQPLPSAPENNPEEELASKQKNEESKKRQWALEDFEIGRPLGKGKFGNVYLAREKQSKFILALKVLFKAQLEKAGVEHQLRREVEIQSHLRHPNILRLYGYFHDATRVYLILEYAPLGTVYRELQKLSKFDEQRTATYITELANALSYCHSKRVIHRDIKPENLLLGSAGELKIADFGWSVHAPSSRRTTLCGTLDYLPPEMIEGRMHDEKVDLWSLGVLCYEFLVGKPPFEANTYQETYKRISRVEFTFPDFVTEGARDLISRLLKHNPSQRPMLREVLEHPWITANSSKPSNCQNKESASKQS
Sequence of Phosphatidylinositol 4,5-bisphosphate 3-kinase catalytic subunit gamma isoform (Homo sapiens) (P48736 whole entry, looked up, canonical isoform): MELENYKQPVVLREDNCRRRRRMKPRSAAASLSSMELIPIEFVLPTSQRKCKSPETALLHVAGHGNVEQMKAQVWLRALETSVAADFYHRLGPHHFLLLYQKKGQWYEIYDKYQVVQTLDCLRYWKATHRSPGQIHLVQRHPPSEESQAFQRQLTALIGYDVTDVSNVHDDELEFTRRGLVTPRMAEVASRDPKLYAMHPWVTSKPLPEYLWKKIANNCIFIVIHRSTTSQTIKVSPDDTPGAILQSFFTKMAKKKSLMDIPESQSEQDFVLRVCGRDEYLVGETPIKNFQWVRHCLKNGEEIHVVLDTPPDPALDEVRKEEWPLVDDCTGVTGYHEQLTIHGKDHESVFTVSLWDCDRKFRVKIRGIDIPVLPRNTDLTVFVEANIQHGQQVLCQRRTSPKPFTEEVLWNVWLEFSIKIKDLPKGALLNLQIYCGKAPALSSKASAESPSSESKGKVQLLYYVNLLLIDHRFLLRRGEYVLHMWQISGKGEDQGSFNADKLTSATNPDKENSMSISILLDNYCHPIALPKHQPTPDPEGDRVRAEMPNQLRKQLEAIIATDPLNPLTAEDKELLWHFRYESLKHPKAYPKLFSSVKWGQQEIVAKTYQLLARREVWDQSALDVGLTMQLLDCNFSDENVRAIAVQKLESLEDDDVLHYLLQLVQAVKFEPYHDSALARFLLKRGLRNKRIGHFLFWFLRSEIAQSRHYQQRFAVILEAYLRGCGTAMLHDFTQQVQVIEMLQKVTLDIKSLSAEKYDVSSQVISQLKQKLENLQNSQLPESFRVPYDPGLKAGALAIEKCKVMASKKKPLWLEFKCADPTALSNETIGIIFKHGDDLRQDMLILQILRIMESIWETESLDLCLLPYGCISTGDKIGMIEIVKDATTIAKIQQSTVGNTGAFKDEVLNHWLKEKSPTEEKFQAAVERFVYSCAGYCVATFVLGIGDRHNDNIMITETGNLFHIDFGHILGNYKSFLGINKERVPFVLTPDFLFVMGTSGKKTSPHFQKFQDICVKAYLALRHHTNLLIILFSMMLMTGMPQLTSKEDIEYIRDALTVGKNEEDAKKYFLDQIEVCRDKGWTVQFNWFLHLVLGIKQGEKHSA
Sequence of Rho-associated protein kinase 2 (Homo sapiens) (O75116 whole entry, looked up, canonical isoform): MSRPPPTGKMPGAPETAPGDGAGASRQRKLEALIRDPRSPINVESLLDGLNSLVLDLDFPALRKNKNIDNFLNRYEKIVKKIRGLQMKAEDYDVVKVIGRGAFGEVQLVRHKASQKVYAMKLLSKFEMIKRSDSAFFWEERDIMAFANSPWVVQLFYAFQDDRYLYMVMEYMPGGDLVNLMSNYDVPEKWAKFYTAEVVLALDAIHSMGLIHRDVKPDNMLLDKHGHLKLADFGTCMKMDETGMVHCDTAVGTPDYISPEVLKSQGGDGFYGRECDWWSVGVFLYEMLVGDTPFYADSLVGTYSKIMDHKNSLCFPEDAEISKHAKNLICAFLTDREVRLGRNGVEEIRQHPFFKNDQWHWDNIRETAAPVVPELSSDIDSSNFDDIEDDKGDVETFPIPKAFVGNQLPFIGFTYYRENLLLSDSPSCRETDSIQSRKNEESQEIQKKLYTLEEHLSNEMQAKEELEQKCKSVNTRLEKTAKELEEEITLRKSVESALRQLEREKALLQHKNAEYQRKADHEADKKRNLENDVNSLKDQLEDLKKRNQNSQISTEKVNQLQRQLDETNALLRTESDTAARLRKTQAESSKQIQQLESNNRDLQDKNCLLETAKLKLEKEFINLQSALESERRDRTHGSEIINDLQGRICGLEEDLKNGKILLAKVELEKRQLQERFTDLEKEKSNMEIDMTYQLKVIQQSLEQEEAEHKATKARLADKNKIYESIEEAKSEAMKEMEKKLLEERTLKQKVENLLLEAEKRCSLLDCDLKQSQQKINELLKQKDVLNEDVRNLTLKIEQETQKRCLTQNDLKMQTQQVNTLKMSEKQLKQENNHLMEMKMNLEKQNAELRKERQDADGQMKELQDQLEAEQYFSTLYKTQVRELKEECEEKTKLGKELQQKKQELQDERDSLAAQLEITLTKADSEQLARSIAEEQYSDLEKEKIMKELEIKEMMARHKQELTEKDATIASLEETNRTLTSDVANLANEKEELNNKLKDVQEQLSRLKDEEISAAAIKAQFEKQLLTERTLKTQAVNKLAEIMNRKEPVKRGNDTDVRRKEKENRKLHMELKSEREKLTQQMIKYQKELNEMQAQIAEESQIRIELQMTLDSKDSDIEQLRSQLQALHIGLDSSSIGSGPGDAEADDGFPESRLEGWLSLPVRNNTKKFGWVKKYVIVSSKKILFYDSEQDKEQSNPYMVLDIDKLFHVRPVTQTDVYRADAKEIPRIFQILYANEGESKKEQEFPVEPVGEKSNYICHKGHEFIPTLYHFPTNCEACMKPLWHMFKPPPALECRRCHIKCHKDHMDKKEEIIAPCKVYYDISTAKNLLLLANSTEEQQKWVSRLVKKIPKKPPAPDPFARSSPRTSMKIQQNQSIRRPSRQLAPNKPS

Q: Which results are given for `COc1cc2c(cc1OC)CN(CC(=O)Nc1ccc3c(c1)/C(=C/c1cnc[nH]1)C(=O)N3)CC2`?
A: inhibition [1]: -4%; inhibition [2]: -2%; inhibition [3]: -5%; inhibition [4]: 5%; GI50 [5]: 7.73 µM; GI50 [6]: 29.9 µM; Activity [7]: 4.1%; inhibition [8]: 37%; inhibition [9]: 12%; inhibition [10]: 30%
